# Reference: patent US20240043527A1 (BioNTech SE, priority 2020, published 2024)
# Tests used:
# [1] = tested on: pancreatic cancer cell lines; conditions: cited from earlier work; for de novo CLDN-18.2 expression: CLDN-18.2-negative cell lines; for CLDN-18.2 expression levels: pancreatic cancer cell lines with existing expression
# [2] = Apparent pKa of the amino lipid; format: physicochemical
# [3] = tested on: locally advanced, unresectable or metastatic pancreatic cancer; conditions: erlotinib versus placebo; cited from earlier work
# advanced BTC = conditions: first-line treatment of advanced disease; cited from earlier work
# PDAC = conditions: metastasized stage; Conroy et al. 2011; cited from earlier work
# [4] = tested on: CLDN-18.2+ NUG-C4 transfectants; assay: Ex vivo ADCC assay with serum of dosed non-human primates; format: cell-based; conditions: serum of monkey No. 14 (1.6 mg/kg) 48 hours after 3rd dosing or recombinant reference protein; 48 hours incubation
# Method: (§1) Non-Human Primates (NHP) received three repetitive doses of 0.1, 0.4 or 1.6 mg/kg RB_RMAB01 once weekly. RiboMab01-containing serum of all monkeys sampled 24 hours (black bars) and 168 hours (white bars) post 1st injection was directed to luciferase-based ex vivo ADCC assays. […] Human PBMCs from two different healthy donors (24 h, donor 1, 168 h, donor 2) served as effector cells. (Panel A) RiboMab01-mediated ADCC of NUG-C4 cells after 48 hours incubation is shown. (Panel B) Unspecific lysis on target-negative MDA-MB-231 cells is shown. Error bars are standard error of the mean (n=3). (Panel C) Serum of NHP No. 14 (1.6 mg/kg RB_RMAB01, RiboMab01 serum concentration 232 μg/mL) collected 48 hours after the 3rd dosing was used for a luciferase-based ex vivo ADCC assays. […] Human PBMCs of a healthy donor served as effector cells. […] Incubation time was 48 hours. Error bars are standard errors of the mean (n=3).
# (§2) ADCC assays were performed as described in Example 2. […] Purified IMAB362 served as assay reference protein.
# MDA-MB-231 cells = assay: Ex vivo ADCC assay with serum of dosed non-human primates, target-negative control cells; format: cell-based; conditions: FIG. 5 Panel C dilution row
# Method: as §1, §2
# [5] = target: CLDN-18.2+ NUG-C4 transfectants; assay: In vitro ADCC assay (luciferase-based); format: cell-based, human; conditions: human PBMCs from three donors, E:T 30:1, 48 hours
# Method: RiboMab01-containing cell culture supernatant from CHO-K1 cells lipofected with RB_RMAB01 was subjected to (Panel A) ADCC and (Panel B) CDC assays. […] Human PBMCs of three different healthy donors were utilized as effector cells (E:T ratio 30:1). Target or control and effector cells were incubated for 48 hours with the indicated RiboMab01 and IMAB362 reference protein concentrations. Specific cell lysis as determined in a luciferase-based assay is shown. […] Target and control cells were incubated with human serum and RiboMab01 concentrations as indicated for 2 hours. CDC determined in a luciferase-based assay is shown. Error bars are standard errors of the mean (n=3).
# Mode of action analysis: Antibody-dependent cellular cytotoxicity (ADCC) and complement-dependent cytotoxicity (CDC) in vitro. […] To simulate in vivo conditions, human PBMCs from three different healthy donors were used as effector cells in ADCC assays in an effector to target (E:T) ratio of 30:1 and human serum (e.g., commercially available human serum) was used as a source of complement in CDC assays.
# [6] = cited from earlier work
# [7] = target: first extracellular domain (ECD1) of CLDN-18.2 (Homo sapiens, UniProt P56856); conditions: cited from earlier work
# CLDN-18.2+ cells = conditions: in serum; Sahin et al. 2018; cited from earlier work
# [8] = cited from earlier work; remark: listed apart in the source
# [9] = tested on: gastric and gastro-esophageal cancer; conditions: cited from earlier work
# [10] = ≥70% CLDN-18.2 expression subset, vs EOX, p<0.0005
molecule,measurement,setting,value
O=c1[nH]cc(F)c(=O)[nH]1 [5-fluorouracil],de novo CLDN-18.2 expression,[1],not observed to increase de novo expression
same,CLDN-18.2 expression levels,[1],upregulate existing CLDN-18.2 expression levels
"CCCCCCC(CCCC)C(=O)OCCCCCCCCCN(CCCO)CCCCCCCCCOC(=O)C(CCCC)CCCCCC (stereo not shown) [Cationic Lipid A, ((3-Hydroxypropyl)azanediyl)bis(nonane-9,1-diyl)bis(2-butyloctanoate)]",pKa,[2],~6.25
C#Cc1cccc(Nc2ncnc3cc(OCCOC)c(OCCOC)cc23)c1 [erlotinib],median overall survival (OS) benefit,[3],0.4 month
same,median progression-free survival (PFS) benefit,[3],0.3 month
Nc1ccn([C@@H]2O[C@H](CO)[C@@H](O)C2(F)F)c(=O)n1 [gemcitabine],median OS,advanced BTC,8.1 months
same,de novo CLDN-18.2 expression,[1],not observed to increase de novo expression
same,CLDN-18.2 expression levels,[1],upregulate existing CLDN-18.2 expression levels
O=C1[O][Pt]2([NH][C@@H]3CCCC[C@H]3[NH]2)[O]C1=O [oxaliplatin],de novo CLDN-18.2 expression,[1],not observed to increase de novo expression
same,CLDN-18.2 expression levels,[1],upregulate existing CLDN-18.2 expression levels
FOLFIRINOX,median survival compared to gemcitabine alone,PDAC,nearly double median survival
IMAB362: full IgG1 monoclonal antibody targeting CLDN-18.2; used as recombinant reference protein,EC50,[4],0.151 nM
same,unspecific lysis on control cells,MDA-MB-231 cells,weak unspecific lysis
same,ADCC EC50,[5],14 to 265 ng/mL
same,cmax,[6]; repeated doses up to 1000 mg/m^2 q3w,up to 603 μg/mL
same,tolerability across various trials,[6]; single agent and in combination with chemotherapy,well tolerated
same,binding to other claudin family members including CLDN18.1,[7],does not bind
same,recognition of ECD1 of CLDN-18.2,[7],high affinity and specificity
same,ADCC EC95 (concentration that gives 95% response),CLDN-18.2+ cells,0.3 to 28 µg/mL
same,patients with grade 3 vomiting,"[8]; 12 patients, 600 mg/m^2 dose",22%
same,patients with fatigue,[8]; TEAE,22%
same,patients with nausea,[8]; TEAE,61%
same,patients with vomiting,[8]; TEAE,50%
same,patients with grade 3 nausea,"[8]; eight patients, 600 mg/m^2 dose",15%
same,patients with treatment emergent adverse events (TEAEs),[8]; n=44/54,82%
same,change of median overall survival,[9]; patients with ≥70% of tumor cells with ≥2+ CLDN-18.2 staining,near-doubling
same,benefit in overall survival (OS),[9]; [10],33.1 weeks
same,delay in central independent reviewed progression,[9]; [10],14.5 weeks
